From ChEMBL document CHEMBL4396891, “Recent update on anti-dengue drug discovery” (Eur J Med Chem, 2019)

Key:
dengue virus type 2 [1] = test: Antiviral activity against DENV2 infected in human Huh7 cells up to 72 hrs by immunofluorescence analysis; format: functional, organism-based; conditions: Huh-7, 72 h
dengue virus type 1 = test: Antiviral activity against DENV1 infected in BHK cells assessed as reduction in viral replication; format: functional, organism-based
dengue virus type 3 = test: Antiviral activity against DENV3 infected in BHK cells assessed as reduction in viral replication; format: functional, organism-based
dengue virus type 2 [2] = test: Antiviral activity against DENV2 infected in BHK cells assessed as reduction in viral replication; format: functional, organism-based
Nonstructural protein 5 = Nonstructural protein 5 (Dengue virus, UniProt V5TFZ2); test: Inhibition of recombinant N-terminal His6-tagged DENV2 NGC NS5 RNA dependent RNA polymerase; design: species or system dengue virus type 2
Nonstructural protein 5, sequence (V5TFZ2 whole entry): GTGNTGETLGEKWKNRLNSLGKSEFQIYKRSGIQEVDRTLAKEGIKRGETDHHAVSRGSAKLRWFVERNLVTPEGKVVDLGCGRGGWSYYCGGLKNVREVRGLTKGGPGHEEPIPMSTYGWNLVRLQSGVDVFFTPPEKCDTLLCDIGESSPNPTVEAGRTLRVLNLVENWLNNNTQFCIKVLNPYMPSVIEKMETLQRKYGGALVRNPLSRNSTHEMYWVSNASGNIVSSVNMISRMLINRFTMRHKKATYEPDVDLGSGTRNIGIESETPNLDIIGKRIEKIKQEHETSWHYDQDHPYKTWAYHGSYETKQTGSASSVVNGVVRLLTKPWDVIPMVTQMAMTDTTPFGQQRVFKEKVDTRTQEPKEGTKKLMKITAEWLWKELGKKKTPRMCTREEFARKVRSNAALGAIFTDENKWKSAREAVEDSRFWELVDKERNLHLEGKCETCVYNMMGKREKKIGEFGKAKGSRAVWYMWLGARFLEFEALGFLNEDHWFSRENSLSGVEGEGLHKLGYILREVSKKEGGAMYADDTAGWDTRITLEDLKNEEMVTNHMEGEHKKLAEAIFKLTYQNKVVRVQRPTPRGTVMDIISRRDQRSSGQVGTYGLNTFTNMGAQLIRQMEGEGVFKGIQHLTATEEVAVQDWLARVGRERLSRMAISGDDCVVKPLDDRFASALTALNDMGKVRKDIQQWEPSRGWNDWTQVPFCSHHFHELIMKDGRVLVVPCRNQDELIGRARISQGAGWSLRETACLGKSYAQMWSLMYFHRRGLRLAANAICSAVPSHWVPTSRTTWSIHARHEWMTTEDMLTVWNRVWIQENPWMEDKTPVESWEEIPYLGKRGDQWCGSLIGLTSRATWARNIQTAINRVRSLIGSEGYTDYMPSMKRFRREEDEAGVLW

dengue virus type 4 = test: Antiviral activity against DENV4 infected in BHK cells assessed as reduction in viral replication; format: functional, organism-based
dengue virus type 2 [3] = test: Antiviral activity against DENV2 infected in human Huh7 cells assessed as reduction in virus yield by qRT-PCR analysis; format: functional, organism-based; conditions: Huh-7
dengue virus type 2 [4] = test: Antiviral activity against DENV2 New Guinea C/PUO-218 by qRT-PCR analysis; format: functional, organism-based
dengue virus type 2 [5] = test: Antiviral activity against DENV2 infected in BHK-21 assessed as reduction in viral plaque formation by crystal violet staining based assay; format: functional, organism-based
A549 = test: Cytotoxicity against human A549 cells assessed as cell survival at 200 uM after 24 hrs by MTT assay relative to control; format: functional; conditions: A549, 24 h, read-out: Activity
dengue virus type 2 [6] = test: Antiviral activity against DENV2 infected in BHK-21 incubated for 2 hrs followed by compound washout and subsequent replating by plaque-forming assay; format: functional, organism-based; conditions: BHK-21, 2 h
dengue virus type 2 [7] = test: Antiviral activity against DENV2 infected in African green monkey Vero cells assessed as reduction in virus titer after 72 hrs by naphthol blue-black dye based assay; format: functional, organism-based

Which IC50 (dengue virus type 2 [1]) does the source give for `CC(=O)O[C@H]1C[C@H](O[C@H]2[C@@H](O)C[C@H](O[C@H]3[C@@H](O)C[C@H](O[C@H]4CC[C@@]5(C)[C@H](CC[C@@H]6[C@@H]5C[C@@H](O)[C@]5(C)[C@@H](C7=CC(=O)OC7)CC[C@]65O)C4)O[C@@H]3C)O[C@@H]2C)O[C@H](C)[C@H]1O[C@@H]1O[C@H](CO)[C@@H](O)[C@H](O)[C@H]1O` [LANATOSIDE C] here?
The IC50 was 0.19 µM.

Which EC50 (dengue virus type 1) does the source give for `O=C(NO)c1ncc(CS(=O)(=O)c2ccccc2)c(CO)c1O` here?
The EC50 was 2.2 to 2.8 µM.

And the EC50 (dengue virus type 3)?
Its EC50 is 2.2 to 2.8 µM.

And the EC50 (dengue virus type 2 [2])?
Its EC50 is 2.2 to 2.8 µM.

What about the IC50 (Nonstructural protein 5) of the same molecule?
The IC50 was 5 to 6.7 µM.

What about the IC50 (dengue virus type 4) of the same molecule?
Its IC50 is 2.2 to 2.8 µM.

Which results are given for `CC(C)OC(=O)[C@H](C)N[P@](=O)(OC[C@H]1O[C@@H](n2ccc(=O)[nH]c2=O)[C@](C)(F)[C@@H]1O)Oc1ccccc1` [SOFOSBUVIR]?
EC50 (dengue virus type 2 [3]): 4.9 µM; EC50 (dengue virus type 2 [4]): 0.4 µM

How did the IC50 (dengue virus type 2 [5]) turn out when `O=C(Nc1ccc([N+](=O)[O-])cc1Cl)c1cc(Cl)ccc1O` [NICLOSAMIDE] was run?
The IC50 was 10 µM.

`CC1(C)[C@@H](OC(=O)CCC(=O)O)CC[C@]2(C)[C@H]3C(=O)C=C4[C@@H]5C[C@@](C)(C(=O)O)CC[C@]5(C)CC[C@@]4(C)[C@]3(C)CC[C@@H]12` [CARBENOXOLONE] was tested. Which viability at 200 µM (A549) did it give?
Its viability at 200 µM is 80%.

Which IC50 (dengue virus type 2 [6]) does the source give for `CCN(CCO)CCCC(C)Nc1ccnc2cc(Cl)ccc12` (configuration not stated) [HYDROXYCHLOROQUINE] here?
The IC50 was 10.1 µM.

`C[C@H]1c2cccc(O)c2C(=O)C2=C(O)[C@]3(O)C(=O)C(C(N)=O)=C(O)[C@@H](N(C)C)[C@@H]3[C@@H](O)[C@@H]21` [DOXYCYCLINE] was tested. Which IC50 (dengue virus type 2 [7]) did it give?
The IC50 was 50 µM.
